“And” between values parts separate entries of the source, which are not always exact repeats. Identical values can stand only once.
System: 922993-354-T-J3-PDC complex spheroids, viability
Experiment: Anticancer human tumor 922993-354-T-J3-PDC patient-derived endometrial carcinoma cell line growth inhibition [GQUAD]
Settings: for viability, T/C: stronger effect = lower value; active = viability on the fitted dose curve at most 10% of control; inactive = the rest
Description: DNA G-quadruplex Stabilizer Agents in Combinations in Complex Spheroids
A high-throughput screen of multi-cell type tumor spheroids was designed to identify active combinations of DNA G-quadruplex stabilizer agents and targeted small molecules. Complex spheroids include a stromal component modeled by human endothelial cells (HUVEC) and fibroblasts modeled by human mesenchymal stem cells (MSCs). The concentration ranges selected for each drug and investigational agent were based upon clinically achievable concentrations if the clinical Cmax of the agent was known.
Compounds. The drugs and investigational agents: pidnarulex (CX-5461; NSC782164), APTO-253 (NSC789042), BRACO-19 (NSC847499), peposertib (NSC802822), ceralasertib (NSC780249), elimusertib (NSC800525), camonsertib (NSC841442), AZD-1390 (NSC803789), olaparib (NSC753686), talazoparib (NSC767125), ART-558 (NSC835418), sotorasib (NSC818433), MRTX-1133 (NSC836407), SN-38 (NSC673596), topotecan (NSC609699), etoposide (NSC141540), doxorubicin (NSC123127), gemcitabine (NSC613327), 5-fluorouracil (NSC19893), paclitaxel (NSC125973), vemurafenib (NSC761431), panobinostat (NSC761190), R-306465 (JNJ-16241199; NSC773264), adavosertib (NSC754352), TP-3654 (NSC805149), carboplatin (NSC241240), KSQ-4279 (NSC840948), and staurosporine (NSC755774) were obtained from the National Cancer Institute (NCI) Developmental Therapeutics Program Chemical Repository (34). The FDA-approved anticancer drug set is available from the NCI Developmental Therapeutics Program. […] The stock solutions were prepared in dimethyl sulfoxide (DMSO, Sigma-Aldrich, St. Louis, MO, cat. D2650) at 800-fold the tested concentration and stored at -70 degrees C prior to their use. All drugs and investigational agents were tested over a range starting from a high concentration at or near the clinical Cmax and decreasing in half-log increments. If the clinical Cmax for an agent had not been determined, the highest concentration tested was 10 microM.
2.3 Cell Culture. All cells were maintained in an incubator at 37 degrees C and 5% CO2 with 95% humidity. The PDC lines were cultured according to standard operating procedures established by the NCI PDMR. All PDCs were thawed and cultured in Matrigel-coated flasks prepared with a working solution of 1X Ham's F-12 nutrient mix, without supplementation (Invitrogen, cat. 11765054), 100 U/mL penicillin-streptomycin (Invitrogen, cat. 15140122), and 2.5% Matrigel (Corning Inc., cat. 354248) for the first three passages. The 857933-349-R-J2-PDC line was cultured in 6C/Colon 1B media, which includes advanced DMEM/F-12 (Thermo Fisher Scientific, cat. 12634028), 10 mM HEPES (Thermo Fisher Scientific, cat. 15630080), 1X GlutaMAX supplement (Thermo Fisher Scientific, cat. 35050061), 0.1 mg/mL primocin (InvivoGen, cat. ant-pm-2), 10% defined fetal bovine serum, heat inactivated (HyClone Laboratories Inc., cat. SH30070.03HI), 50% L-WRN conditioned media (ATCC, cat. CRL-3276), 1.25 mM N-Acetyl-L-cysteine (Sigma-Aldrich, cat. A9165), 10 mM nicotinamide (Sigma-Aldrich, cat. N0636), 1X B-27 supplement (Thermo Fisher Scientific, cat. 17504044), 1X N-2 supplement (Thermo Fisher Scientific, cat. 17502048), 10 microM Y-27632 dihydrochloride (Tocris Bioscience, cat. 1254), and 50 ng/mL human EGF recombinant protein (Thermo Fisher Scientific, cat. PHG0311). The 485176-168-R4-J1-PDC line was cultured in Panc media, which includes all 6C/Colon 1B media components plus 100 ng/mL human FGF-10 (Thermo Fisher Scientific, cat. 100-26), 500 nM SB-431542 (Selleckchem, cat. S1067), and gastrin (Tocris, cat. 3006).
[…]

[1] = curve of first compound, second compound 0.0316 µM
[2] = curve of first compound, second compound 0.1 µM
[3] = curve of first compound, second compound 0.316 µM
[4] = curve of first compound, second compound 1 µM
[5] = curve of first compound, second compound 3.16 µM
[6] = curve of first compound, second compound 10 µM
[7] = second compound 0.0316 µM, first compound 0.0316 µM
[8] = second compound 0.0316 µM, first compound 0.1 µM
[9] = second compound 0.0316 µM, first compound 0.316 µM
[10] = second compound 0.0316 µM, first compound 1 µM
[11] = second compound 0.0316 µM, first compound 3.16 µM
[12] = second compound 0.0316 µM, first compound 10 µM
[13] = second compound 0.1 µM, first compound 0.0316 µM
[14] = second compound 0.1 µM, first compound 0.1 µM
[15] = second compound 0.1 µM, first compound 0.316 µM
[16] = second compound 0.1 µM, first compound 1 µM
[17] = second compound 0.1 µM, first compound 3.16 µM
[18] = second compound 0.1 µM, first compound 10 µM
[19] = second compound 0.316 µM, first compound 0.0316 µM
[20] = second compound 0.316 µM, first compound 0.1 µM
[21] = second compound 0.316 µM, first compound 0.316 µM
[22] = second compound 0.316 µM, first compound 1 µM
[23] = second compound 0.316 µM, first compound 3.16 µM
[24] = second compound 0.316 µM, first compound 10 µM
[25] = second compound 1 µM, first compound 0.0316 µM
[26] = second compound 1 µM, first compound 0.1 µM
[27] = second compound 1 µM, first compound 0.316 µM
[28] = second compound 1 µM, first compound 1 µM
[29] = second compound 1 µM, first compound 3.16 µM
[30] = second compound 1 µM, first compound 10 µM
[31] = second compound 3.16 µM, first compound 0.0316 µM
[32] = second compound 3.16 µM, first compound 0.1 µM
[33] = second compound 3.16 µM, first compound 0.316 µM
[34] = second compound 3.16 µM, first compound 1 µM
[35] = second compound 3.16 µM, first compound 3.16 µM
[36] = second compound 3.16 µM, first compound 10 µM
[37] = second compound 10 µM, first compound 0.0316 µM
[38] = second compound 10 µM, first compound 0.1 µM
[39] = second compound 10 µM, first compound 0.316 µM
[40] = second compound 10 µM, first compound 1 µM
[41] = second compound 10 µM, first compound 3.16 µM
[42] = second compound 10 µM, first compound 10 µM
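Also: spheroids exposed to compounds for seven days.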

C#Cc1c(F)ccc2cc(O)cc(-c3ncc4c(N5CC6CCC(C5)N6)nc(OCC56CCCN5CC(F)C6)nc4c3F)c12 (stereo not drawn) + Cc1[nH]c2ccc(F)cc2c1-c1nc2c3cccnc3c3ncccc3c2[nH]1
inactive: viability, T/C [7] 112% | viability, T/C [8] 93.3% | viability, T/C [9] 106% | viability, T/C [10] 98.2% | viability, T/C [11] 96% | viability, T/C [12] 80.7% | viability, T/C [13] 103% | viability, T/C [14] 98.4% | viability, T/C [15] 94.7% | viability, T/C [16] 107% | viability, T/C [17] 116% | viability, T/C [18] 110% | viability, T/C [19] 87% | viability, T/C [20] 88.8% | viability, T/C [21] 94% | viability, T/C [22] 99.2% | viability, T/C [23] 87.8% | viability, T/C [24] 124% | viability, T/C [25] 83.4% | viability, T/C [26] 108% | viability, T/C [27] 99.5% | viability, T/C [28] 120% | viability, T/C [29] 125% | viability, T/C [30] 114% | viability, T/C [31] 103% | viability, T/C [32] 87.6% | viability, T/C [33] 121% | viability, T/C [34] 107% | viability, T/C [35] 114% | viability, T/C [36] 113% | viability, T/C [37] 91.6% | viability, T/C [38] 104% | viability, T/C [39] 101% | viability, T/C [40] 110% | viability, T/C [41] 127% | viability, T/C [42] 113%
> 10 µM: IC50 [1] | IC50 [2] | IC50 [3] | IC50 [4] | IC50 [5] | IC50 [6]

CC1COCCN1c1cc(C2(O)CC3CCC(C2)O3)c2cnn(-c3ccn[nH]3)c2n1 (stereo not drawn) + CN(C)c1ccc(Nc2c3ccc(NC(=O)CCN4CCCC4)cc3nc3cc(NC(=O)CCN4CCCC4)ccc23)cc1
0.456 µM: IC50 [1]
0.784 µM: IC50 [4]
inactive: viability, T/C [7] 124% | viability, T/C [8] 78.8% | viability, T/C [9] 67% | viability, T/C [10] 29.4% | viability, T/C [11] 23.3% | viability, T/C [12] 18.4% | viability, T/C [13] 82.8% | viability, T/C [14] 82.2% | viability, T/C [15] 68.2% | viability, T/C [16] 29.8% | viability, T/C [17] 21.3% | viability, T/C [18] 22% | viability, T/C [19] 112% | viability, T/C [20] 86.1% | viability, T/C [21] 66.4% | viability, T/C [22] 27.3% | viability, T/C [23] 22.1% | viability, T/C [24] 19.7% | viability, T/C [25] 98.6% | viability, T/C [26] 102% | viability, T/C [27] 70.5% | viability, T/C [28] 47.3% | viability, T/C [29] 20.2% | viability, T/C [30] 19.7% | viability, T/C [31] 127% | viability, T/C [32] 79.7% | viability, T/C [33] 65.5% | viability, T/C [34] 39.4% | viability, T/C [35] 21.5% | viability, T/C [36] 25.4% | viability, T/C [37] 115% | viability, T/C [38] 113% | viability, T/C [39] 86.4% | viability, T/C [40] 48.8% | viability, T/C [41] 21.7% | viability, T/C [42] 25.2%
0.52 µM: IC50 [5]
0.545 µM: IC50 [2]
0.483 µM: IC50 [3]
0.906 µM: IC50 [6]

COc1ncnc(C2CC2)c1-c1ncc2cnn(Cc3ccc(-c4nc(C(F)(F)F)cn4C(C)C)cc3)c2n1
> 10 µM: IC50 (curve of compound)
inactive: viability, T/C (compound 0.0316 µM) 91.6% and 114% and 86.8% | viability, T/C (compound 0.1 µM) 87.8% and 92.6% and 89.9% | viability, T/C (compound 0.316 µM) 101% and 104% and 102% | viability, T/C (compound 1 µM) 87.8% and 99.7% and 99.6% | viability, T/C (compound 3.16 µM) 110% and 85.1% and 69.7% | viability, T/C (compound 10 µM) 95.9% and 87.4% and 81.4%

O=C(NO)c1cnc(N2CCN(S(=O)(=O)c3ccc4ccccc4c3)CC2)nc1 + CN(C)c1ccc(Nc2c3ccc(NC(=O)CCN4CCCC4)cc3nc3cc(NC(=O)CCN4CCCC4)ccc23)cc1
0.448 µM: IC50 [4]
0.475 µM: IC50 [2]
0.39 µM: IC50 [1]
0.689 µM: IC50 [6]
inactive: viability, T/C [7] 107% | viability, T/C [8] 79.2% | viability, T/C [9] 50% | viability, T/C [10] 41.5% | viability, T/C [11] 4.18% | viability, T/C [13] 79.9% | viability, T/C [14] 96.1% | viability, T/C [15] 56.6% | viability, T/C [16] 29.6% | viability, T/C [19] 96.5% | viability, T/C [20] 75% | viability, T/C [21] 60.8% | viability, T/C [22] 33.4% | viability, T/C [23] 4.98% | viability, T/C [25] 76.7% | viability, T/C [26] 76.6% | viability, T/C [27] 54.5% | viability, T/C [28] 34.5% | viability, T/C [31] 88.3% | viability, T/C [32] 95.7% | viability, T/C [33] 80.9% | viability, T/C [34] 34.3% | viability, T/C [37] 101% | viability, T/C [38] 85.6% | viability, T/C [39] 95.3% | viability, T/C [40] 29%
0.682 µM: IC50 [5]
0.442 µM: IC50 [3]
active: viability, T/C [12] 0.41% | viability, T/C [17] 4.22% | viability, T/C [18] 0.4% | viability, T/C [24] 0.4% | viability, T/C [29] 3.3% | viability, T/C [30] 0.44% | viability, T/C [35] 4.89% | viability, T/C [36] 0.4% | viability, T/C [41] 5.63% | viability, T/C [42] 0.55%
